Publication PMC5267425, “Identification of small molecule modulators of HIV-1 Tat and Rev protein accumulation” (Retrovirology, 2017)

System: cellular gene expression in HeLa rtTA HIV∆Mls cells

Cc1cc(NCc2cccnc2)n2ncc(-c3ccc(Cl)cc3)c2n1 [Compound 791, 3-(4-chlorophenyl)-5-methyl-N-(3-pyridinylmethyl)pyrazolo[1,5-a]pyrimidin-7-amine]
DCAF6 expression fold change: 0.581 | DCAF17 Mean fold change: 1.433 | DCI expression fold change: 1.321 | DCLRE1A expression fold change: 1.408 | DCXR expression fold change: 1.050 | DDB2 expression fold change: 1.399 | DDR1 expression fold change: 0.690 | DDX10 expression fold change: 1.177 | DDX31 Mean fold change: 1.434 | DDX50 expression fold change: 1.253 | DENND4B expression fold change: 1.243 | DET1 expression fold change: 1.366 | DGCR2 expression fold change: 0.881 | DGKQ expression fold change: 1.343 | DHX35 expression fold change: 1.203 | DLG4 expression fold change: 1.263 | DMAP1 expression fold change: 0.891 | DNAH14 Mean fold change: 1.678 | DNAH17 Mean fold change: 1.839 | DNAJA3 Mean fold change: 1.796 | DNAJB14 expression fold change: 1.264 | DNASE2 expression fold change: 1.378 | DNMT3L expression fold change: 0.498 | DOCK1 expression fold change: 0.758 | DOCK8 expression fold change: 0.595 | DPH5 Mean fold change: 1.479 | DPM2 expression fold change: 1.136 | DPYSL2 Mean fold change: 1.729 | DSE expression fold change: 0.858 | DUS4L Mean fold change: 1.822 | DUSP1 expression fold change: 0.730 | DUSP8 expression fold change: 0.576 | DYM expression fold change: 1.260 | DYNC1I2 expression fold change: 0.857 | DYNLT1 expression fold change: 1.171 | DYRK2 expression fold change: 1.206 | EARS2 expression fold change: 1.134 | ECT2 expression fold change: 0.716 | EDA2R Mean fold change: 1.924 | EDEM1 expression fold change: 1.273 | EFCAB2 expression fold change: 1.159 | EIF1 Mean fold change: 1.516 | EIF2S2 Mean fold change: 1.734 | EIF2S3 expression fold change: 1.243 | EIF4EBP1 Mean fold change: 2.239 | ELMO2 expression fold change: 1.211 | ELP3 expression fold change: 1.135 | EMP2 expression fold change: 0.740 | ENOPH1 Mean fold change: 1.427 | EPB41L2 expression fold change: 0.862 | EPB41L4A expression fold change: 0.788 | EPB41 Mean fold change: 1.417 | EPM2AIP1 expression fold change: 1.093 | EPRS expression fold change: 1.271 | ERCC2 expression fold change: 0.790 | ERGIC1 expression fold change: 1.185 | ERICH1 expression fold change: 0.941 | ERMAP Mean fold change: 1.499 | ERRFI1 Mean fold change: 1.452 | ESAM expression fold change: 0.673 | ESCO1 expression fold change: 1.256 | ESF1 expression fold change: 1.072 | ESRRA expression fold change: 1.275 | ESYT2 expression fold change: 0.824 | ETV4 Mean fold change: 4.291 | ETV6 expression fold change: 1.253 | F2R expression fold change: 0.551 | FAIM3 expression fold change: 1.351 | FAM13B expression fold change: 0.771 | FAM27E2 Mean fold change: 2.360 | FAM83D expression fold change: 0.622 | FAM83G expression fold change: 1.328 | FAM86A Mean fold change: 1.567 | FAM86B1 Mean fold change: 2.493 | FAM86B2 Mean fold change: 2.843 | FAM86C Mean fold change: 1.599 | FAM102A expression fold change: 1.402 | FAM107B expression fold change: 1.234 | FAM114A1 expression fold change: 0.853 | FAM119B expression fold change: 1.218 | FAM127A expression fold change: 0.756 | FAM133B expression fold change: 1.056 | FAM176B expression fold change: 1.310 | FAM179B expression fold change: 1.253 | FAM192A expression fold change: 1.096 | FAM195B expression fold change: 0.859 | FAM199X expression fold change: 1.145 | FAR1 expression fold change: 1.245 | FARP1 expression fold change: 0.824 | FASTKD2 expression fold change: 1.173 | FBXL2 expression fold change: 0.756 | FBXO22 expression fold change: 1.399 | FBXO28 expression fold change: 1.101 | FBXO45 Mean fold change: 1.434 | FBXW4 expression fold change: 1.381 | FBXW11 expression fold change: 1.080 | FDFT1 expression fold change: 0.649 | FECH expression fold change: 0.957 | FEM1C expression fold change: 1.387 | FEZ2 expression fold change: 1.355 | FGFR3 expression fold change: 0.612 | FLCN expression fold change: 1.383 | FLII expression fold change: 0.919 | FLYWCH1 expression fold change: 1.367 | FOSL2 expression fold change: 1.375 | FOXF1 expression fold change: 1.318 | FOXJ2 expression fold change: 1.277 | FOXJ3 expression fold change: 1.187 | FOXN2 expression fold change: 1.082 | FRAT1 expression fold change: 0.900 | FSTL1 expression fold change: 0.717 | FUBP1 expression fold change: 0.781 | FXYD5 expression fold change: 1.215 | FZR1 expression fold change: 0.784 | GABARAPL2 expression fold change: 0.887 | GADD45A Mean fold change: 2.491 | GALNT2 expression fold change: 0.621 | GATA5 expression fold change: 1.360 | GATSL1 expression fold change: 0.637 | GBA2 expression fold change: 1.203 | GCC1 Mean fold change: 1.971 | GDF15 Mean fold change: 7.775 | GGA3 expression fold change: 1.172 | GJD3 expression fold change: 1.295 | GLCCI1 expression fold change: 0.781 | GLI2 expression fold change: 0.589
